Source: EP4700025A1, “AMIDE COMPOUND, PHARMACEUTICAL COMPOSITION COMPRISING SAME, AND USE THEREOF” (Suzhou Genhouse Bio Co., Ltd., priority 2023, dated 2024)

Assays:
[1] = test system: HCT-116; test: CCK8 proliferation inhibition, HCT-116; type: cell-based; settings: Homo sapiens, 192 h, CCK8, 8 days after drug treatment
Protocol: (§1) The above normally growing cells were digested with a cell trypsinization solution, centrifuged, counted, and seeded into a 96-well plate at an appropriate cell density (2000 cells/well) at 100 µL/well. The next day after cell seeding, the compounds at different concentrations were added to the wells. Three replicate wells were set for each concentration point, and a corresponding DMSO negative control group was also set. CCK8 solution was added to each well 8 days after drug treatment. The plate was incubated at 37 °C for a period of time (OD450 of the vehicle group reached 1.0 or higher) before the absorbance at 450 nm was read using a microplate reader. The inhibition rates were calculated, and the EC50 values were determined by fitting using the GraphPad Prism 7.0 software. Table 2. EC50 values of compounds at cellular level

[2] = test system: HCT-116-MTAP^-/-; test: CCK8 proliferation inhibition, HCT-116-MTAP^-/-; type: cell-based; settings: Homo sapiens, 192 h; HCT-116-MTAP^-/- (MTAP-deficient); CCK8, 8 days after drug treatment
Protocol: as §1

[3] = test system: SDMA; test: SDMA Inhibition Assay in HCT-116 cells; type: cell-based; settings: Homo sapiens, HCT-116, 96 hours
Protocol: (§2) The next day, the cells were treated with the compounds at different concentrations (with an initial concentration of 10 µM, 5-fold dilution, 9 concentration gradients). After 96 hours, the culture medium was pipetted out and the cells were washed 2 times with 100 µL of PBS. The cells were then fixed with 4% paraformaldehyde and incubated at room temperature for 20 min. The fixative solution was discarded, and the cells were washed with PBS. 150 µL of specialized blocking solution (containing 1% Triton-100) was added to each well for blocking at room temperature for 2 hours, and the plate was washed with PBS to remove excess blocking solution. […] The cells were incubated at 4 °C overnight. The next day, the cells were separately washed 2 times with 1× PBST. […] The cells were incubated at room temperature for 2 hours. The cells were washed 2 times with 1× PBST and 1 time with PBS. Fluorescence signals at 700 nm and 800 nm were separately detected using a Li-COR Odyssey two-color near-infrared laser imager. The inhibition rates were calculated, and the EC50 values were determined by fitting using the GraphPad Prism 7.0 software. Table 3. Inhibition of SDMA by test compounds

[4] = test system: SDMA; test: SDMA Inhibition Assay in HCT-116-MTAP^-/- cells; type: cell-based; settings: Homo sapiens, 96 hours
Protocol: as §2

[5] = test system: SDMA; test: SDMA Inhibition Assay in A549 cells; type: cell-based; settings: Homo sapiens, A549, 96 hours
Protocol: as §2

[6] = Pharmacokinetic assay in mice; type: in vivo, Balb/c mice; settings: mouse; for AUC(0-t) / Cmax / AUC(0-inf) / C0 / MRT inf / Vd / Tmax: plasma; for MRT inf: read-out: MRT(0-∞); for Vd: read-out: Vz; for F: PO 10mpk vs IV 2mpk
Protocol: Eighteen male Balb/c mice aged 6 to 8 weeks were randomly divided into 2 groups (IV group and PO group). The corresponding compounds were administered to the animals in the IV group by tail intravenous injection at 2 mg/kg, and the corresponding compounds were administered to the animals in the PO group by oral gavage at 10 mg/kg or 100 mg/kg. The animals in the IV group were allowed free access to food and water, and the animals in the PO group were fasted overnight before administration and were fed 4 h after administration. Throughout the experiment, the animals were allowed free access to water. Plasma samples were separately collected at 0.083 h (only group IV), 0.25 h, 0.5 h, 1 h, 2 h, 4 h, 8 h, and 24 h after administration. About 100 µL of blood was collected from the orbit of the animal, placed into a 1.5 mL anticoagulation centrifuge tube, and centrifuged at 8000 rpm and 4 °C for 10 min. The upper plasma sample was transferred to an EP tube. The plasma samples were stored in a refrigerator at -80 °C until sample analysis. Pharmacokinetic parameters of the drug were calculated based on the drug concentration-time data, including the peak concentration Cmax, peak time Tmax, clearance rate CL, steady state apparent volume of distribution Vss, area under drug-time curve AUC, elimination half-life t1/2, bioavailability, and the like. Data below the 80% lower limit of quantification were excluded from the calculation of pharmacokinetic parameters.

[7] = Pharmacokinetic assay in rats; type: in vivo, SD rats; settings: rat; for MRT inf: read-out: MRT(0-∞)
Protocol: In this experimental example, the pharmacokinetic behavior of the test compounds after administration by intravenous injection (IV) and oral gavage (PO) in SD rats was tested.
On the day of administration, rats were weighed for actual body weight, and the administration volume was calculated. Each compound was tested in two groups with 3 rats in each group; one group was subjected to administration by single intravenous injection, and the other group was subjected to administration by single oral gavage. The whole blood samples were collected via the jugular vein at prescribed time points (0.25 h, 0.5 h, 1 h, 2 h, 4 h, 8 h, and 24 h after administration). After the blood sample collection, the samples were immediately transferred to labeled commercial sample tubes containing K2-EDTA (0.85-1.15 mg), followed by centrifugation (3200× g, 4 °C, 10 min) and plasma collection. The plasma was transferred to a pre-cooled centrifuge tube, frozen in dry ice, and then stored in an ultra-low temperature freezer at -60 °C or lower until the LC-MS/MS analysis was performed.
Plasma concentrations were determined by the LC-MS/MS method. Plasma drug concentration data for the compounds were processed using a non-compartmental model in the WinNonlin Version 6.3 (Pharsight, Mountain View, CA) pharmacokinetic software. The relevant pharmacokinetic parameters were calculated by a linear-log trapezoidal method.

[8] = test system: A549; test: CCK8 proliferation inhibition, A549; type: cell-based; settings: Homo sapiens, 192 h, CCK8, 8 days after drug treatment
Protocol: as §1

[9] = male, Balb/c, 10 mg/kg, PO 10mpk

## CC1OCc2c1c(N)nc1cc(F)c(C(=O)N(Cc3ccc4c(c3)OC(F)(F)O4)C3CC3)cc21 (racemic) [Example I-36]
[1]
  EC50: > 10000 nM
[2]
  EC50: 24.2 nM

## Cn1ncc2c(N)nc3cnc(C(=O)N4CCN(C5(C)CC5)CC4c4ccc5c(c4)OC(F)(F)O5)cc3c21 (racemic) [Example I-113]
[1]
  EC50: > 10000 nM
[2]
  EC50: 50.5 nM
[3]
  EC50: 403 nM
[4]
  EC50: 4.1 nM

## Cn1ncc2c(N)nc3ccc(C(=O)N4CCOCC4c4ccc5c(c4)OC(F)(F)O5)cc3c21 (single isomer, unassigned) [I-4 (PEAK1)]
[1]
  EC50: 6410 nM
[2]
  EC50: 47.7 nM
[3]
  EC50: 906 nM
[4]
  EC50: 9.1 nM
[5]
  EC50: 6.1 nM

## Nc1nc2cnc(C(=O)N3CCOC[C@@H]3c3ccc(C(F)(F)F)cc3)cc2c2c1COC2 [Control compound B, reference compound]
[6]; male, Balb/c, 2 mg/kg, IV 2mpk
  AUC(0-t): 6.9 µM·h
[6]; [9]
  AUC(0-t): 26.5 µM·h
  Cmax: 5760 nM

## CN(Cc1ccc2c(c1)OC(F)(F)O2)C(=O)c1ccc2nc(N)c3cnn(C)c3c2c1 [Example I-2]
[1]
  EC50: 6740 nM
[2]
  EC50: 42.6 nM
[3]
  EC50: 1010 nM
[4]
  EC50: 8.3 nM
[5]
  EC50: 5.1 nM
[6]; male, Balb/c, 2 mg/kg, IV 2mpk
  AUC(0-inf): 4.11 µM·h
  AUC(0-t): 3.53 µM·h
  C0: 1520 nM
  MRT inf: 4 h
  Vd: 4.7 L/kg
[6]; [9]
  AUC(0-inf): 18.8 µM·h
  AUC(0-t): 18.1 µM·h
  Cmax: 2190 nM
  Tmax: 1 h
  MRT inf: 7.1 h
[6]; IV 2mpk
  CLz: 18.3 mL/min/kg
  R_AUC(t/∞): 85.8%
  t1/2z: 2.8 h
[6]; PO 10mpk
  R_AUC(t/∞): 96.3%
  t1/2z: 5.5 h
[6]
  F: 91.5%
[7]; SD, plasma, 2 mg/kg, IV 2mpk
  AUC(0-inf): 6.91 µM·h
  AUC(0-t): 6.42 µM·h
  C0: 2340 nM
  MRT inf: 4.3 h
[7]; SD, plasma, 2 mg/kg, IV 2mpk, read-out: Vz
  Vd: 3.4 L/kg
[7]; SD, plasma, 10 mg/kg, PO 10mpk
  AUC(0-inf): 17.2 µM·h
  AUC(0-t): 14.8 µM·h
  Cmax: 1680 nM
  Tmax: 2.3 h
  MRT inf: 7.2 h
[7]; IV 2mpk
  CLz: 13 mL/min/kg
  R_AUC(t/∞): 91.6%
  t1/2z: 3.5 h
[7]; PO 10mpk
  R_AUC(t/∞): 86.6%
  t1/2z: 4.7 h
[7]; PO 10mpk (IV reference 2mpk; 0.2mpk for I-7)
  F: 49.9%

## Cn1ncc2c(N)nc3cc(F)c(C(=O)N4CCOCC4c4ccc5c(c4)OC(F)(F)O5)cc3c21 (stereo not shown) [Example I-3]
[1]
  EC50: 2370 nM
[2]
  EC50: 8.4 nM
[3]
  EC50: 101 nM
[4]
  EC50: 0.6 nM
[5]
  EC50: 2.1 nM

## Cn1ncc2c(N)nc3ccc(C(=O)N4CCOCC4c4ccc5c(c4)OC(F)(F)O5)cc3c21 (stereo not shown) [Example I-4]
[1]
  EC50: > 10000 nM
[2]
  EC50: 27 nM
[3]
  EC50: 381 nM
[4]
  EC50: 7.4 nM
[5]
  EC50: 7 nM

## CCN(Cc1ccc2c(c1)OC(F)(F)O2)C(=O)c1ccc2nc(N)c3cnn(C)c3c2c1 [Example I-5]
[1]
  EC50: 2360 nM
[2]
  EC50: 4.7 nM
[3]
  EC50: 200 nM
[4]
  EC50: 2.1 nM
[5]
  EC50: 2.6 nM
[6]; male, Balb/c, 2 mg/kg, IV 2mpk
  AUC(0-inf): 3.62 µM·h
  AUC(0-t): 3.32 µM·h
  C0: 1860 nM
  MRT inf: 2.9 h
  Vd: 4.4 L/kg
[6]; [9]
  AUC(0-inf): 12.4 µM·h
  AUC(0-t): 12.4 µM·h
  Cmax: 1930 nM
  Tmax: 1 h
  MRT inf: 4.8 h
[6]; IV 2mpk
  CLz: 21.7 mL/min/kg
  R_AUC(t/∞): 91.7%
  t1/2z: 2.4 h
[6]; PO 10mpk
  R_AUC(t/∞): 99.9%
  t1/2z: 2.4 h
[6]
  F: 68.6%

## C[C@@H]1COCC(c2ccc3c(c2)OC(F)(F)O3)N1C(=O)c1cc2c(cc1F)nc(N)c1cnn(C)c12 (stereo partly shown) [Example I-11]
[2]
  EC50: 0.9 nM
[8]
  EC50: 2.5 nM
[4]
  EC50: 0.4 nM
[5]
  EC50: 0.3 nM

## CC(C)N(Cc1ccc2c(c1)OC(F)(F)O2)C(=O)c1cc2c(cc1F)nc(N)c1cnn(C)c12 [Example I-13]
[2]
  EC50: 3.4 nM
[8]
  EC50: 10.8 nM
[4]
  EC50: 3.5 nM
[5]
  EC50: 2.1 nM

## Cn1ncc2c(N)nc3ccc(C(=O)N(Cc4ccc5c(c4)OC(F)(F)O5)C4CC4)cc3c21 [Example I-15]
[1]
  EC50: 5760 nM
[2]
  EC50: 34 nM
[3]
  EC50: 628 nM
[4]
  EC50: 10.3 nM
[5]
  EC50: 7.6 nM

## CN(Cc1ccc2c(cnn2C)c1)C(=O)c1cc2c(cc1F)nc(N)c1cnn(C)c12 [Example I-18]
[1]
  EC50: 3440 nM
[2]
  EC50: 18.3 nM
[3]
  EC50: 1020 nM
[4]
  EC50: 3.1 nM
[5]
  EC50: 3.1 nM

## CN(Cc1ccc2cnn(C)c2c1)C(=O)c1cc2c(cc1F)nc(N)c1cnn(C)c12 [Example I-19]
[1]
  EC50: > 10000 nM
[2]
  EC50: 48.2 nM
[3]
  EC50: 828 nM
[4]
  EC50: 6.6 nM
[5]
  EC50: 7.2 nM

## CN(Cc1ccc2nn(C)cc2c1)C(=O)c1cc2c(cc1F)nc(N)c1cnn(C)c12 [Example I-20]
[1]
  EC50: > 10000 nM
[2]
  EC50: 16.1 nM
[3]
  EC50: 862 nM
[4]
  EC50: 5.5 nM
[5]
  EC50: 9.2 nM

## Cn1ncc2c(N)nc3cc(F)c(C(=O)N(CCN4CCOCC4)Cc4ccc5c(c4)OC(F)(F)O5)cc3c21 [Example I-21]
[1]
  EC50: 2610 nM
[2]
  EC50: 22 nM
[3]
  EC50: 292 nM
[4]
  EC50: 3 nM
[5]
  EC50: 1.9 nM

## COCCN(Cc1ccc2c(c1)OC(F)(F)O2)C(=O)c1cc2c(cc1F)nc(N)c1cnn(C)c12 [Example I-23]
[2]
  EC50: 2.1 nM
[8]
  EC50: 7.7 nM
[4]
  EC50: 1.3 nM
[5]
  EC50: 0.8 nM

## COC[C@@H](C)N(Cc1ccc2c(c1)OC(F)(F)O2)C(=O)c1cc2c(cc1F)nc(N)c1cnn(C)c12 [Example I-24]
[2]
  EC50: 3.2 nM
[8]
  EC50: 8 nM
[4]
  EC50: 1.7 nM
[5]
  EC50: 1 nM

## CN1CCN(CCN(Cc2ccc3c(c2)OC(F)(F)O3)C(=O)c2cc3c(cc2F)nc(N)c2cnn(C)c23)CC1 [Example I-31]
[1]
  EC50: 2710 nM
[2]
  EC50: 35.8 nM
[3]
  EC50: 1120 nM
[4]
  EC50: 8.7 nM
[5]
  EC50: 6.7 nM

## Nc1nc2cnc(C(=O)N3CCOC[C@@H]3c3ccc4c(c3)OC(F)(F)O4)cc2c2c1COC2 [Example I-109]
[1]
  EC50: 4850 nM
[2]
  EC50: 19.2 nM
[3]
  EC50: 938 nM
[4]
  EC50: 15 nM
[5]
  EC50: 2.8 nM
[6]; 2 mg/kg, IV 2mpk
  AUC(0-t): 13.4 µM·h
[6]; 10 mg/kg, PO 10mpk
  AUC(0-t): 44.1 µM·h
  Cmax: 14700 nM

## Cn1ncc2c(N)nc3cnc(C(=O)N4CC5(CC5)OCC4c4ccc5c(c4)OC(F)(F)O5)cc3c21 (stereo not shown) [Example I-110]
[3]
  EC50: > 1000 nM
[4]
  EC50: 36 nM
[5]
  EC50: 19 nM
